Assays:
RIPK1 = biological target: T1, RIPK1 (Mus musculus, UniProt Q60855); experiment: Small-animal PET imaging, baseline and blocking with unlabeled PK68; assay type: in vivo, mice
T1 construct: RIPK1 in liver of healthy mouse would exist with nonnegligible level; from tissue; host or cells: living healthy mice; volumes of interest on heart, lung, liver, kidney, small intestine, muscle and brain
T1 sequence (Q60855 1-656): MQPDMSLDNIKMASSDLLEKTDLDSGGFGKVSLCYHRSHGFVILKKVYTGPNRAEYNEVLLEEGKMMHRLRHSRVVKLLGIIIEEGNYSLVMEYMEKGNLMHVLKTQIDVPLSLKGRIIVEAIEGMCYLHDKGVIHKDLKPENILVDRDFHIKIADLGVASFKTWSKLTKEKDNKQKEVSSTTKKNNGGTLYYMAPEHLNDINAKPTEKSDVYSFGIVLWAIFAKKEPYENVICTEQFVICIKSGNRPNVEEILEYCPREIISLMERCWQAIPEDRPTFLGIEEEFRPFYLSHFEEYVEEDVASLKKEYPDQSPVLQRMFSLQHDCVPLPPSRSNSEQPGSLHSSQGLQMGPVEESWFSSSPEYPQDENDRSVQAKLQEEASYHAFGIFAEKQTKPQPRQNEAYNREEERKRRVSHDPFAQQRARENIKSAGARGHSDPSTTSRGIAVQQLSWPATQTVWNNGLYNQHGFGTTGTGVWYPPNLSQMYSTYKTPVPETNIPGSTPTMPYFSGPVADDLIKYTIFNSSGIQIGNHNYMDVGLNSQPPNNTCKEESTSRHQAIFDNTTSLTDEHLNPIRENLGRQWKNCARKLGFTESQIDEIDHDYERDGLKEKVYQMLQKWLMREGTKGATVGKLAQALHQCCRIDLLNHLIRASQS
Procedure: Each mouse was anesthetized using 1.5% (v/v) isoflurane, and an intravenous catheter was inserted into its tail vein. The mice (10–14 weeks old, 48.1 ± 7.4 g) were subsequently maintained under anesthesia and secured in a custom-designed chamber placed in the center of a small-animal PET scanner (Inveon, Siemens Healthineers, Erlangen, Germany). After adjusting the target position for scanning, dynamic emission scans (in three-dimensional list mode) were performed for 60 min (1 min × 4 frames, 2 min × 8 frames, and 5 min × 8 frames). [^11C]PK68 (11–16 MBq) was injected via a tail vein catheter. The body temperature of each mouse was maintained at 37 °C using a heated (40 °C) water circulation system (T/Pump TP401, Gaymar Industries, NY, USA) during the PET scan. For the blocking study, the mice were pretreated with unlabeled PK68 (1 mg/kg) just before the injection of [^11C]PK68. The obtained dynamic PET images (0.6 mm slice thickness) were reconstructed by filtered-back projection using a Hanning filter, with a Nyquist cutoff of 0.5 cycles per pixel. The time–activity curves (TACs) of [^11C]PK68 were acquired using PMOD software (version 3.4, PMOD Technology, Zurich, Switzerland) from the volumes of interest, which were manually mapped onto the heart, lung, liver, kidney, small-intestine (part of duodenum), muscle, and brain. The radioactivity was decay-corrected to the injection time and is expressed as a standardized uptake value (SUV), normalized for injected radioactivity and body weight. The SUV was calculated according to the following formula: SUV = (radioactivity per milliliter tissue/injected radioactivity) × body weight (g). We also calculated the area under the curve (AUC) using TACs from 0 to 60 min.

[1] = Ex vivo biodistribution study; assay type: in vivo, mice; details: mean ± SD, n = 3
Procedure: Each mouse (8 weeks old, 37.9 ± 1.0 g) was injected with a bolus of [^11C]PK68 (2.7 MBq, 0.1 mL) via its tail vein. Three mice were sacrificed by cervical dislocation at each experimental time-point (1, 5, 15, 30, and 60 min) after the injection. The blood (heart contents), heart wall, lung, liver, pancreas, spleen, kidneys, adrenals, stomach (including contents), small intestine (including contents), large intestines (including contents), testes, muscles, and whole brain were removed quickly and weighed. The radioactivity in these tissues was measured with an autogamma scintillation counter (2480 Wizard^2) and expressed as %ID/g. All radioactivity measurements were corrected for decay.

[2] = blocking with unlabeled PK68 1 mg/kg i.v.

Which results are given for `Cc1ncc(-c2ccc3nc(N[11C](C)=O)sc3c2)cc1NC(=O)OC1CCCCC1` [[^11C]PK68, Cyclohexyl (5-(2-[^11C-carbonyl]acetamidobenzo[d]thiazol-6-yl)-2-methylpyridin-3-yl)carbamate]?
peak radioactivity in kidney (RIPK1; baseline): 2.7 SUV; peak radioactivity in liver (RIPK1; baseline): 4.8 SUV; uptake of radioactivity by the brain (RIPK1; baseline mice, PET, i.v.): < 0.3 SUV; time of peak radioactivity in kidney (RIPK1; baseline, after injection): 1.5 min; time of peak radioactivity in liver (RIPK1; baseline, after injection): 2.5 min; peak radioactivity in kidneys (RIPK1; [2]): 2.3 SUV; peak radioactivity in liver (RIPK1; [2]): 4.2 SUV; specific binding for RIPK1 in PET imaging (RIPK1; healthy mice): no obvious specific binding; difference in AUC (0-60 min) in liver and kidney, baseline vs blocking (RIPK1; n = 2 per group): no significant differences; reduction of maximum SUV in liver and kidney by blocking (RIPK1; unlabeled PK68 1 mg/kg i.v.): roughly 15%; radioactivity in adrenals ([1]; 1 min after injection): 6.2 ± 2.7 %ID/g; radioactivity in blood ([1]; 1 min after injection): 2.4 ± 0.3 %ID/g; radioactivity in brain ([1]; 1 min after injection): 0.6 ± 0.0 %ID/g; radioactivity in heart ([1]; 1 min after injection): 7.6 ± 0.3 %ID/g; radioactivity in large intestine (including contents) ([1]; 1 min after injection): 0.7 ± 0.1 %ID/g; radioactivity in liver ([1]; 1 min after injection): 8.0 ± 0.8 %ID/g; radioactivity in lung ([1]; 1 min after injection): 5.2 ± 0.2 %ID/g; radioactivity in muscle ([1]; 1 min after injection): 1.9 ± 0.3 %ID/g; radioactivity in pancreas ([1]; 1 min after injection): 3.4 ± 0.2 %ID/g; radioactivity in small intestine (including contents) ([1]; 1 min after injection): 1.8 ± 0.1 %ID/g; radioactivity in spleen ([1]; 1 min after injection): 1.5 ± 0.2 %ID/g; radioactivity in stomach (including contents) ([1]; 1 min after injection): 1.2 ± 0.2 %ID/g; radioactivity in testis ([1]; 1 min after injection): 0.3 ± 0.1 %ID/g; radioactivity in adrenals ([1]; 5 min after injection): 4.0 ± 0.5 %ID/g; radioactivity in blood ([1]; 5 min after injection): 1.3 ± 0.2 %ID/g; radioactivity in brain ([1]; 5 min after injection): 0.4 ± 0.0 %ID/g; radioactivity in heart ([1]; 5 min after injection): 2.8 ± 0.3 %ID/g; radioactivity in kidney ([1]; 5 min after injection): 9.9 ± 0.4 %ID/g; radioactivity in large intestine (including contents) ([1]; 5 min after injection): 0.9 ± 0.1 %ID/g; radioactivity in liver ([1]; 5 min after injection): 17.2 ± 0.7 %ID/g; radioactivity in lung ([1]; 5 min after injection): 2.6 ± 0.2 %ID/g; radioactivity in muscle ([1]; 5 min after injection): 1.1 ± 0.1 %ID/g; radioactivity in pancreas ([1]; 5 min after injection): 2.7 ± 0.3 %ID/g; radioactivity in small intestine (including contents) ([1]; 5 min after injection): 3.3 ± 0.1 %ID/g; radioactivity in spleen ([1]; 5 min after injection): 1.6 ± 0.1 %ID/g; radioactivity in stomach (including contents) ([1]; 5 min after injection): 2.0 ± 0.1 %ID/g; radioactivity in testis ([1]; 5 min after injection): 0.3 ± 0.0 %ID/g; radioactivity in adrenals ([1]; 15 min after injection): 3.3 ± 0.5 %ID/g; radioactivity in blood ([1]; 15 min after injection): 1.1 ± 0.1 %ID/g; radioactivity in brain ([1]; 15 min after injection): 0.3 ± 0.0 %ID/g; radioactivity in heart ([1]; 15 min after injection): 2.1 ± 0.3 %ID/g; radioactivity in kidney ([1]; 15 min after injection): 7.7 ± 1.0 %ID/g; radioactivity in large intestine (including contents) ([1]; 15 min after injection): 1.4 ± 0.3 %ID/g; radioactivity in liver ([1]; 15 min after injection): 15.6 ± 0.8 %ID/g; radioactivity in lung ([1]; 15 min after injection): 2.1 ± 0.3 %ID/g; radioactivity in muscle ([1]; 15 min after injection): 0.8 ± 0.1 %ID/g; radioactivity in pancreas ([1]; 15 min after injection): 2.1 ± 0.3 %ID/g; radioactivity in small intestine (including contents) ([1]; 15 min after injection): 9.8 ± 3.1 %ID/g; radioactivity in spleen ([1]; 15 min after injection): 1.4 ± 0.2 %ID/g; radioactivity in stomach (including contents) ([1]; 15 min after injection): 4.0 ± 1.2 %ID/g; radioactivity in testis ([1]; 15 min after injection): 0.3 ± 0.0 %ID/g; radioactivity in adrenals ([1]; 30 min after injection): 2.1 ± 0.8 %ID/g; radioactivity in blood ([1]; 30 min after injection): 0.8 ± 0.1 %ID/g; radioactivity in brain ([1]; 30 min after injection): 0.2 ± 0.0 %ID/g; radioactivity in heart ([1]; 30 min after injection): 1.3 ± 0.1 %ID/g; radioactivity in kidney ([1]; 30 min after injection): 6.2 ± 0.6 %ID/g; radioactivity in large intestine (including contents) ([1]; 30 min after injection): 1.7 ± 0.4 %ID/g; radioactivity in liver ([1]; 30 min after injection): 10.7 ± 0.3 %ID/g; radioactivity in lung ([1]; 30 min after injection): 1.5 ± 0.2 %ID/g; radioactivity in muscle ([1]; 30 min after injection): 0.6 ± 0.1 %ID/g; radioactivity in pancreas ([1]; 30 min after injection): 1.4 ± 0.1 %ID/g; radioactivity in small intestine (including contents) ([1]; 30 min after injection): 16.7 ± 1.4 %ID/g; radioactivity in spleen ([1]; 30 min after injection): 0.9 ± 0.0 %ID/g; radioactivity in stomach (including contents) ([1]; 30 min after injection): 4.7 ± 1.0 %ID/g; radioactivity in testis ([1]; 30 min after injection): 0.3 ± 0.0 %ID/g; radioactivity in adrenals ([1]; 60 min after injection): 1.2 ± 0.1 %ID/g; radioactivity in blood ([1]; 60 min after injection): 0.5 ± 0.1 %ID/g; radioactivity in brain ([1]; 60 min after injection): 0.1 ± 0.0 %ID/g; radioactivity in heart ([1]; 60 min after injection): 0.7 ± 0.1 %ID/g; radioactivity in kidney ([1]; 60 min after injection): 3.2 ± 0.1 %ID/g; radioactivity in large intestine (including contents) ([1]; 60 min after injection): 2.6 ± 0.6 %ID/g; radioactivity in liver ([1]; 60 min after injection): 6.0 ± 0.2 %ID/g; radioactivity in lung ([1]; 60 min after injection): 0.8 ± 0.1 %ID/g; radioactivity in muscle ([1]; 60 min after injection): 0.3 ± 0.0 %ID/g; radioactivity in pancreas ([1]; 60 min after injection): 0.8 ± 0.1 %ID/g; radioactivity in small intestine (including contents) ([1]; 60 min after injection): 27.7 ± 3.0 %ID/g; radioactivity in spleen ([1]; 60 min after injection): 0.5 ± 0.1 %ID/g; radioactivity in stomach (including contents) ([1]; 60 min after injection): 7.2 ± 2.4 %ID/g; radioactivity in testis ([1]; 60 min after injection): 0.2 ± 0.0 %ID/g
